Results published in patent US20120152149A1, “USE OF 1,3-DIOLS AS BIOCIDES” (BASF SE, priority 2009, published 2012).
Where two headings read alike, the source gives them in different places.

Experiments:
Format in all cases: cell-based
A. niger IMI 149007 = experiment: Microstatic activity, MIC in tryptone soy broth; conditions: Aspergillus niger, IMI149007, 120 h, 25° C., 5 days
Experimental: (§1) For this, in each case a 40 percent strength by weight solution of a diol in propylene glycol was prepared at 60° C. This solution was diluted with a double-strength soy solution (double-strength tryptone soy broth) as nutrient medium in the volume ratio 1:1. Further dilution with soy solution produced solutions with the following concentrations: 400 000 ppm (40%), 200 000 ppm (20%), 100 000 ppm (10%), 50 000 ppm (5%), 25 000 ppm (2.5%), 12 500 ppm (1.25%), 6250 ppm (0.625%), 3125 ppm (0.3125%). Pure soy solution was used as negative control. The positive control used was a solution of 5 ml of soy solution which has been treated with 0.1 ml of the respective microorganism. The test solutions consisted of 5 ml of the above-described soy solutions of the diols in the particular concentration which have been mixed with 0.1 ml of the respective microorganism. The samples and controls were incubated in the case of the bacteria at 30° C. for 48 hours, and in the case of fungi over 5 days at 25° C. In each case, the MIC (Minimum Inhibitory Concentration) value was determined. This value indicates the minimum concentration above which the growth of the microorganisms was visibly hindered compared to the corresponding sample without addition of the diol. […] For example, this was evident from the occurrence of clouding or visible growth of the microorganism. […] The MIC value stated is a range between the next higher concentration of a positive test and the same and/or lower concentration of a first negative test.

C. albicans NCPF 3179 = experiment: Microstatic activity, MIC in tryptone soy broth; conditions: Candida albicans, NCPF3179, 120 h, 25° C., 5 days
Experimental: as §1

E. coli NCIMB 8545 = experiment: Microstatic activity, MIC in tryptone soy broth; conditions: Escherichia coli, NCIMB8545, 30° C., 48 hours
Experimental: as §1

[1] = system: P. aeruginosa NCIMB 10421; experiment: Microstatic activity, MIC in tryptone soy broth; conditions: Pseudomonas aeruginosa, NCIMB10421, 30° C., 48 hours
Experimental: as §1

P. vulgaris NCIMB 4175 = experiment: Microstatic activity, MIC in tryptone soy broth; conditions: Proteus vulgaris, NCIMB4175, 30° C., 48 hours
Experimental: as §1

S. aureus NCIMB 9578 = experiment: Microstatic activity, MIC in tryptone soy broth; conditions: Staphylococcus aureus, NCIMB9578, 30° C., 48 hours
Experimental: as §1

[2] = system: series of tested microorganisms (bacteria and fungi); experiment: Microstatic activity, highest MIC from the series of tested microorganisms; conditions: highest measured MIC from the series of tested microorganisms
Experimental: The following microorganisms were used;to test the biocidal effect against various bacteria and fungi: In each case, the MIC (Minimum Inhibitory Concentration) value was determined. This value indicates the minimum concentration above which the growth of the microorganisms was visibly hindered compared to the corresponding sample without addition of the diol. The MIC value stated is a range between the next higher concentration of a positive test and the same and/or lower concentration of a first negative test. In the last line of each of the tables below, a “maximum” value is listed. This value indicates the highest measured MIC value in each case from the series of tested microorganisms.

A. niger ATCC 16404 [3] = experiment: Preservation stress test, example formulation 1 (standard emulsion O/W); conditions: 1% active substance
Experimental: (§2) Preservation stress tests (PSTs) were carried out in order to determine the preserving activity of the diols. In the preservation stress test, this is simulated through artificial loadings with microorganisms. These can either be inoculated as mixed population or individually in mixtures independent of one another. The inoculated product samples are incubated under defined conditions and, after defined times, samples are taken in order to determine the germ loading. In the case of adequate preservation, the number of microorganisms should, depending on the type, either decrease or remain constant in order to satisfy the requirements specified, e.g. in Ph. Eur. 6.0. To investigate the preserving effect of the diols, application-typical amounts of the diols were incorporated into example formulations. […] [table] These example formulations were used to prepare various mixtures which each comprised 1% active substance or comprised water instead of the active substance as placebo mixtures. These mixtures were in each case inoculated with the test germs such that a germ loading of 10^5-10^6 CFU/g was present in the test mixture. The bacteria were either used individually for the inoculation or as a mixed culture. To determine the starting germ count, immediately after inoculation, an aliquot was taken, diluted in dilution medium (phosphate buffer, 0.07 molar pH 7.4 (+/−0.2), with 1% Tween 80+0.3% soya lecithin), and the surviving germ count was determined in the dilution stages 10^−1 to 10^−3. The inoculated product samples then incubated for a total of 28 d at 20-25° C. After 2 d, 7 d, 14 d and after 28 d, aliquots were taken and diluted in dilution medium (phosphate buffer, 0.07 molar pH 7.4 (+/−0.2), with 1% Tween 80+0.3% soya lecithin). The surviving germ counts were determined in the dilution stages 10^−1 to 10^−4. The reference point taken for determining the reduction in germ count was the respective initial value of the sample. The results were given as logarithmic reductions.

C. albicans ATCC 10231 = experiment: as above; conditions: 1% active substance
Experimental: as §2

A. niger ATCC 16404 [4] = experiment: Preservation stress test, example formulation 2 (roll-on deodorant formulation); conditions: 1% active substance
Experimental: as §2

E. coli ATCC 10536 = experiment: as above; conditions: 1% active substance
Experimental: as §2

S. aureus ATCC 6538 = experiment: as above; conditions: 1% active substance
Experimental: as §2

[5] = lower limit of MIC range, read-out: MIC value (ppm of diol), from
[6] = upper limit of MIC range, read-out: MIC value (ppm of diol), to
[7] = lower limit, read-out: Maximum MIC value (ppm of diol), from
[8] = upper limit, read-out: Maximum MIC value (ppm of diol), to

Compound | MIC (A. niger IMI 149007; [5]) | MIC (A. niger IMI 149007; [6]) | MIC (C. albicans NCPF 3179; [5]) | MIC (C. albicans NCPF 3179; [6]) | MIC (E. coli NCIMB 8545; [5]) | MIC (E. coli NCIMB 8545; [6]) | MIC [1, 5] | MIC [1, 6] | MIC (P. vulgaris NCIMB 4175; [5]) | MIC (P. vulgaris NCIMB 4175; [6]) | MIC (S. aureus NCIMB 9578; [5]) | MIC (S. aureus NCIMB 9578; [6]) | MIC [2, 7] | MIC [2, 8] | Microbicidal activity given as logarithmic reduction in germ count (A. niger ATCC 16404 [3]; 48 h) | Microbicidal activity given as logarithmic reduction in germ count (A. niger ATCC 16404 [3]; 7 d) | Microbicidal activity given as logarithmic reduction in germ count (A. niger ATCC 16404 [3]; 14 d) | Microbicidal activity given as logarithmic reduction in germ count (C. albicans ATCC 10231; 48 h) | Microbicidal activity given as logarithmic reduction in germ count (C. albicans ATCC 10231; 7 d) | Microbicidal activity given as logarithmic reduction in germ count (C. albicans ATCC 10231; 14 d) | other results
CCCC(O)CO (centres unmarked) [1,2-Pentanediol, 1,2-pentanediol, reference compound] | > 12.5 mg/mL | ≤ 25 mg/mL | > 25 mg/mL | ≤ 50 mg/mL | > 25 mg/mL | ≤ 50 mg/mL | > 12.5 mg/mL | ≤ 25 mg/mL | > 25 mg/mL | ≤ 50 mg/mL | > 25 mg/mL | ≤ 50 mg/mL | > 25 mg/mL | ≤ 50 mg/mL | 0 log. Red. | 0 log. Red. | 0 log. Red. | 0 log. Red. | 0 log. Red. | 0 log. Red. | Microbicidal activity given as logarithmic reduction in germ count (A. niger ATCC 16404 [4]; 48 h): 0 log. Red.; Microbicidal activity given as logarithmic reduction in germ count (A. niger ATCC 16404 [4]; 7 d): 0 log. Red.; Microbicidal activity given as logarithmic reduction in germ count (A. niger ATCC 16404 [4]; 14 d): 0 log. Red.; Microbicidal activity given as logarithmic reduction in germ count (E. coli ATCC 10536; 48 h): 0 log. Red.; Microbicidal activity given as logarithmic reduction in germ count (E. coli ATCC 10536; 7 d): 1 log. Red.; Microbicidal activity given as logarithmic reduction in germ count (E. coli ATCC 10536; 14 d): 1 log. Red.; Microbicidal activity given as logarithmic reduction in germ count (S. aureus ATCC 6538; 48 h): 1 log. Red.; Microbicidal activity given as logarithmic reduction in germ count (S. aureus ATCC 6538; 7 d): 1 log. Red.; Microbicidal activity given as logarithmic reduction in germ count (S. aureus ATCC 6538; 14 d): 5 log. Red.
OCC1(CO)CC2CCC1C2 (centres unmarked) [2,2-DMNB, 2,2-dimethylolnorbornane] | > 25 mg/mL | ≤ 50 mg/mL | > 50 mg/mL | ≤ 100 mg/mL | > 3.12 mg/mL | ≤ 6.25 mg/mL | > 12.5 mg/mL | ≤ 25 mg/mL | > 6.25 mg/mL | ≤ 12.5 mg/mL | > 12.5 mg/mL | ≤ 25 mg/mL | > 50 mg/mL | ≤ 100 mg/mL | 0 log. Red. | 0 log. Red. | 0 log. Red. | 1 log. Red. | ≧3 log. Red. | 5 log. Red. | Microbicidal activity given as logarithmic reduction in germ count (A. niger ATCC 16404 [3]; 28 d): 0 log. Red.; Microbicidal activity given as logarithmic reduction in germ count (C. albicans ATCC 10231; 28 d): 5 log. Red.; Microbicidal activity given as logarithmic reduction in germ count (A. niger ATCC 16404 [4]; 48 h): 0 log. Red.; Microbicidal activity given as logarithmic reduction in germ count (A. niger ATCC 16404 [4]; 7 d): 0 log. Red.; Microbicidal activity given as logarithmic reduction in germ count (A. niger ATCC 16404 [4]; 14 d): 0 log. Red.; Microbicidal activity given as logarithmic reduction in germ count (E. coli ATCC 10536; 48 h): 2 log. Red.; Microbicidal activity given as logarithmic reduction in germ count (E. coli ATCC 10536; 7 d): ≧3 log. Red.; Microbicidal activity given as logarithmic reduction in germ count (E. coli ATCC 10536; 14 d): 5 log. Red.; Microbicidal activity given as logarithmic reduction in germ count (E. coli ATCC 10536; 28 d): 5 log. Red.; Microbicidal activity given as logarithmic reduction in germ count (S. aureus ATCC 6538; 48 h): ≧3 log. Red.; Microbicidal activity given as logarithmic reduction in germ count (S. aureus ATCC 6538; 7 d): 5 log. Red.; Microbicidal activity given as logarithmic reduction in germ count (S. aureus ATCC 6538; 14 d): 5 log. Red.; Microbicidal activity given as logarithmic reduction in germ count (S. aureus ATCC 6538; 28 d): 5 log. Red.
